For series [1], the system named is E. coli (ATCC CRM 8739) biofilm. The format is cell-based, Escherichia coli. The conditions noted are these: ATCC CRM 8739, 24 h. The method, then: The anti-biofilm activities of the peptides against S. aureus (ATCC 6538), MRSA (NCTC 12493), E. faecalis (NCTC 12493), E. coli (ATCC CRM 8739), K. pneumoniae (ATCC 43816), and P. aeruginosa (ATCC CRM 9027) were evaluated.
The bacteria were inoculated in a different medium (Gram-positive bacteria were in TSB and Gram-negative bacteria were in LB) overnight, and the subculture was conducted in the same medium. When the bacteria reached a specific density, 100 µL of the dilution was added to each well of the 96-well microplate. Then 1 µL of peptide at a series of concentrations, the same concentration in the antimicrobial assay, were added into the well together with the bacteria. The plates were put into a moist shaking incubator with a speed of 200 rpm, and the temperature was set at 37 ℃. After a 24-h incubation, the liquid in the wells was aspirated, and each was washed twice by 100 µL PBS. One hundred µL of methanol were added into each well to stabilise the biofilm. After air-drying, 100 µL crystal violet was used to dye the biofilm, and they were dissolved in the 100 µL glacial acidic acid after drying. The solutions were transferred to a new microplate, and the absorbance of each well was tested by a microplate reader (EL808, Biolise BioTek Winooski, Minneapolis, MN, USA) at 595 nm wavelength. MBIC was the minimum concentration of the peptide showing no biofilm formation.
The bacteria were inoculated in a different medium (Gram-positive bacteria were in TSB and Gram-negative bacteria were in LB) overnight, and the subculture was conducted in the same medium. When the bacteria reached a specific density, 100 µL of the dilution was added to each well of the 96-well microplates. The plates were put into a moist shaking incubator with a speed of 200 rpm and the temperature was 37 ℃. After a 24 h incubation, the liquid in the wells was aspirated and they were washed twice by 100 µL PBS of each well. The peptides with the same concentrations were diluted in the corresponding medium and 100 µL were added into each well. After a 24-h incubation, the liquid in the wells was aspirated and they were washed twice by 100 µL PBS. One hundred µL of methanol were added into the wells to stabilise the biofilms. After being air-dried, 100 µL crystal violet was used to dye the biofilm, and they were dissolved in the 100 µL glacial acidic acid after drying. The solutions were transferred to a new microplate, and the absorbance of each well was tested by a microplate reader (EL808, Biolise BioTek Winooski, Minneapolis, USA) at 595 nm wavelength.

The test system of series [2] is horse red cells (defibrinated horse blood). Briefly: Haemolysis assay. The conditions noted are these: 2% (v/v) horse red cell suspension mixed 1:1 with peptide in PBS, 37 ℃ 2 h, absorbance 570 nm, 0.1% Triton X-100 positive control; nine replicates from three independent tests. The series is classed as cell-based. The method, then:
The haemolysis assay was conducted on defibrinated horse blood (TCS Biosciences Ltd., Buckingham, UK), which was washed by PBS in advance. The peptides were dissolved in PBS to the concentration of 1024 μM, and a series of two-fold dilutions was made by PBS as well. A volume of different concentrations of 120 μL peptide solutions were mixed with the same volume of 2% (v/v) of horse red cell suspension gently in a 1.5 mL tube, and the complex was incubated at 37 ℃ for 2 h. PBS and 0.1% Triton X-100 with the same volume were used as the negative and positive controls, respectively. Each group had three replicates. After the incubation, 100 μL supernatant of each tube was aspirated into a new 96-well plate, and their absorbances were analysed by a microplate reader (EL808, Biolise BioTek Winooski, Minneapolis, USA) at a wavelength of 570 nm. The equation to calculate the haemolysis of the peptides is shown below. (2) […]=(A−An)/(Ap−An)×100%
A represents the absorbance of each well in the sample groups. An represents the average absorbance of the wells in the negative control group. Ap represents the average absorbance of the wells in the positive control group.

The subject of a further series is S. aureus (ATCC 6538). The series is classed as cell-based, Staphylococcus aureus. Here is the method: (§1) The method of antimicrobial assay is based on the Methods for Dilution Antimicrobial Susceptibility Tests for Bacteria that Grow Aerobically from the Clinical and Laboratory Standards Institute (CLSI).The antimicrobial activities of peptides were evaluated against Gram-positive bacteria S. aureus (ATCC 6538), MRSA (NCTC 12493), E. faecalis (NCTC 12493), Gram-negative bacteria E. coli (ATCC CRM 8739), K. pneumoniae (ATCC 43816), P. aeruginosa (ATCC CRM 9027), yeast C. albicans (ATCC CRM 10231) and clinical isolates MRSA (B042 V2E1 A), E. coli (ATCC BAA-2340), K. pneumoniae (ATCC BAA-1705), P. aeruginosa (B004 V2S2 B).
(§2) At the first stage of the assay, 20 μL bacteria were cultured in 100 mL Mueller Hinton Broth (MHB) or Yeast Extract–Peptone–Dextrose broth (YPD-B), respectively, and was incubated overnight. Then, microorganisms were subcultured in 20 mL fresh MHB or YPD-B to achieve cultures in the logarithmic phase (1 × 10^8 CFU/mL), which can be verified by optical density (OD) (The OD of Gram-positive bacteria is 0.23, OD of Gram-negative bacteria is 0.4, and OD of yeast is 0.15), and viable cell counts. Then, the medium was used to dilute the cultures to specific cell densities (Gram-negative and Gram-positive bacteria: 5 × 10^5 CFU/mL; yeast: 1 × 10^6 CFU/mL), which were the final concentrations of bacterial suspensions used in the assay. The peptides were dissolved in DMSO to reach a final concentration of 512 µM. A series of two-fold dilutions ranging from 512 µM to 1 µM were dosed in the 96-well plates.
(§3) Antimicrobial assays were conducted in 96-well plates, which were divided into five groups, including a negative control group (PBS), a positive control group (20 μg/mL norfloxacin for bacteria and 10 μg/mL amphotericin B for yeast), vehicle control (1% DMSO), blank control (MHB or YPD-B), and a peptide group. Each microorganism had five repetitions, and each well contained 1 µL corresponding solution and 99 µL culture. After incubation at 37 °C overnight, the absorbance of each well was tested by a microplate reader (EL808, Biolise BioTek Winooski, Minneapolis, USA) under a 550 nm wavelength. The MIC is the lowest concentration at which no bacterial growth can be observed.
(§4) The next day, 10 µL of every clear well was taken out to be cultured on a Mueller Hinton Agar (MHA) plate and incubated at 37 °C for 16–20 h. The MBC is the lowest concentration without any bacterial colonies, which means at this concentration, the peptide reduces the viability of the pathogen by more than 99.9%.

The subject of series [3] is K. pneumoniae (ATCC BAA-1705). The format is cell-based, Klebsiella pneumoniae. Here is the method:
as §1, §2, §3, §4

In series [4] the test system is K. pneumoniae (ATCC 43816). The series is classed as cell-based, Klebsiella pneumoniae. Here is the method:
as §1, §2, §3, §4

Values after ≈ are worked out from the molar mass of the structure shown. Where a SMILES comes first, the peptide text is derived from it.

Here are results for 6 compounds from article PMC8388802, “Study on the Structure-Activity Relationship of an Antimicrobial Peptide, Brevinin-2GUb, from the Skin Secretion of Hylarana guentheri” (Antibiotics, 2021).

For the compound `CC[C@H](C)[C@H](NC(=O)[C@@H](NC(=O)CN)C(C)C)C(=O)N[C@H](C(=O)N[C@@H](CCCCN)C(=O)N[C@H](C(=O)N[C@@H](CC(C)C)C(N)=O)[C@@H](C)O)[C@@H](C)CC` [Peptide 7-tB2U-K] (H-GVIIKTL-NH2), the MBEC in series [1] is greater than 512 µM. This compound returned an MBIC in series [1] greater than 512 µM. The HC50 in series [2] is given as 11,008 μM. Moreover, the MBC (against S. aureus (ATCC 6538); in series [3]; in series [4]) was greater than 512 µM throughout. Besides, the figures for the MIC (with S. aureus (ATCC 6538); in series [3]; in series [4]) were 512 µM (≈ 380 µg/mL), greater than 512 µM and greater than 512 µM, respectively.
In series [1], `CC[C@H](C)[C@H](NC(=O)[C@@H](NC(=O)CN)C(C)C)C(=O)N[C@H](C(=O)N[C@@H](CCCCN)C(=O)N[C@H](C(=O)N[C@@H](CC(C)C)C(=O)N[C@@H](CCCCN)C(=O)NCC(=O)N[C@@H](C)C(=O)N[C@@H](C)C(=O)N[C@@H](CCCCN)C(=O)N[C@H](C(=O)N[C@H](C(N)=O)C(C)C)[C@@H](C)O)[C@@H](C)O)[C@@H](C)CC` [Peptide 14-tB2U-K] (H-GVIIKTLKGAAKTV-NH2) returned an MBEC greater than 512 µM. The same compound registered an MBIC in series [1] greater than 512 µM. In addition, the HC50 in series [2] is recorded as 10,834 μM. For the same compound, the MBC (in the series on S. aureus (ATCC 6538); in series [3]; in series [4]) was greater than 512 µM in each case. In addition, the MIC against S. aureus (ATCC 6538) is 256 µM (≈ 358 µg/mL); in series [3] it was greater than 512 µM; in series [4] it was greater than 512 µM.
In series [1], `CC[C@H](C)[C@H](NC(=O)[C@@H](NC(=O)CN)C(C)C)C(=O)N[C@H](C(=O)N[C@@H](CCCCN)C(=O)N[C@@H](CCCCN)C(=O)N[C@@H](CC(C)C)C(=O)N[C@@H](CCCCN)C(=O)NCC(=O)N[C@@H](C)C(=O)N[C@@H](C)C(=O)N[C@@H](CCCCN)C(=O)N[C@@H](CCCCN)C(=O)N[C@H](C(=O)N[C@@H](C)C(=O)N[C@@H](C)C(=O)N[C@@H](CCCCN)C(=O)N[C@@H](CC(C)C)C(=O)N[C@@H](CC(C)C)C(N)=O)C(C)C)[C@@H](C)CC` [tB2U-6K] (H-GVIIKKLKGAAKKVAAKLL-NH2) yielded an MBEC greater than 512 µM and an MBIC of 2 µM. This compound gave an HC50 in series [2] of 6506 µM. In the series with S. aureus (ATCC 6538), this compound showed an MBC of 32 µM (≈ 62.4 µg/mL) and a minimum inhibitory concentration (MIC) of 32 µM (≈ 62.4 µg/mL). In series [3], this compound registered an MBC of 128 µM (≈ 249 µg/mL) and an MIC of 128 µM (≈ 249 µg/mL). Also, in series [4], the MBC came out at 32 µM (≈ 62.4 µg/mL) and the lowest concentration to inhibit growth (MIC) was 32 µM (≈ 62.4 µg/mL).
In series [1], `CC[C@H](C)[C@H](NC(=O)[C@@H](NC(=O)CN)C(C)C)C(=O)N[C@H](C(=O)N[C@@H](CCCCN)C(=O)N[C@H](C(=O)N[C@@H](CC(C)C)C(=O)N[C@@H](CCCCN)C(=O)NCC(=O)N[C@@H](C)C(=O)N[C@@H](C)C(=O)N[C@@H](CCCCN)C(=O)N[C@H](C(=O)N[C@H](C(=O)N[C@@H](C)C(=O)N[C@@H](C)C(=O)N[C@@H](CCCCN)C(=O)N[C@@H](CC(C)C)C(=O)N[C@@H](CC(C)C)C(N)=O)C(C)C)[C@@H](C)O)[C@@H](C)O)[C@@H](C)CC` [tB2U-K] (H-GVIIKTLKGAAKTVAAKLL-NH2) gave an MBEC greater than 512 µM and an MBIC of 16 µM. Further, the HC50 in series [2] stood at 3056 µM. Moreover, in the series with S. aureus (ATCC 6538), the MBC came out at 32 µM (≈ 60.6 µg/mL) and the lowest concentration to inhibit growth (MIC) was 32 µM (≈ 60.6 µg/mL). In series [3], the MBC is 128 µM (≈ 242 µg/mL) and the lowest concentration to inhibit growth (MIC) was 128 µM (≈ 242 µg/mL). In series [4], the minimum bactericidal concentration (MBC) came to 128 µM (≈ 242 µg/mL) and the MIC was determined as 128 µM (≈ 242 µg/mL).
In the case of `CC[C@H](C)[C@H](NC(=O)[C@@H](NC(=O)CN)C(C)C)C(=O)N[C@H](C(=O)N[C@@H](CC(=O)O)C(=O)N[C@H](C(=O)N[C@@H](CC(C)C)C(=O)N[C@@H](CCCCN)C(=O)NCC(=O)N[C@@H](C)C(=O)N[C@@H](C)C(=O)N[C@@H](CCCCN)C(=O)N[C@H](C(=O)N[C@H](C(=O)N[C@@H](C)C(=O)N[C@@H](C)C(=O)N[C@@H](CCC(=O)O)C(=O)N[C@@H](CC(C)C)C(=O)N[C@@H](CC(C)C)C(N)=O)C(C)C)[C@@H](C)O)[C@@H](C)O)[C@@H](C)CC` [tB2U-α] (H-GVIIDTLKGAAKTVAAELL-NH2), the MBEC in series [1] is greater than 512 µM. The compound further gave an MBIC in series [1] greater than 512 µM. Moreover, in series [2], the HC50 is recorded as 15,609 μM. For the same compound, the MBC (against S. aureus (ATCC 6538); in series [3]; in series [4]) was greater than 512 µM each time. Besides, the minimal inhibitory concentration (MIC) (in the series with S. aureus (ATCC 6538); in series [3]; in series [4]) was greater than 512 µM in each case.
For `CC[C@H](C)[C@H](NC(=O)[C@@H](NC(=O)CN)C(C)C)C(=O)N[C@H](C(=O)N[C@@H](CC(=O)O)C(=O)N[C@H](C(=O)N[C@@H](CC(C)C)C(=O)N[C@@H](CCCCN)C(=O)NCC(=O)N[C@@H](C)C(=O)N[C@@H](C)C(=O)N[C@@H](CCCCN)C(=O)N[C@H](C(=O)N[C@H](C(=O)N[C@@H](C)C(=O)N[C@@H](C)C(=O)N[C@@H](CCC(=O)O)C(=O)N[C@@H](CC(C)C)C(=O)N[C@@H](CC(C)C)C(=O)N[C@@H](CCCNC(=N)N)C(=O)N[C@@H](CCCCN)C(=O)N[C@@H](C)C(=O)N[C@@H](Cc1c[nH]cn1)C(N)=O)C(C)C)[C@@H](C)O)[C@@H](C)O)[C@@H](C)CC` [tB2U] (H-GVIIDTLKGAAKTVAAELLRKAH-NH2), in series [1], the MBEC was greater than 512 µM and the MBIC is greater than 512 µM. Also, the HC50 in series [2] is 16,393 μM. For the same compound, in the series on S. aureus (ATCC 6538), the MBC is greater than 512 µM and the MIC amounted to 256 µM (≈ 608 µg/mL). In series [3], this compound showed an MBC greater than 512 µM and an MIC greater than 512 µM. In series [4], the MBC is greater than 512 µM and the MIC stood at 512 µM (≈ 1220 µg/mL).
